Experimental data as given in ChEMBL document CHEMBL2331362, “Identification of N-acyl 4-(5-pyrimidine-2,4-dionyl)phenylalanine derivatives and their orally active prodrug esters as dual-acting alpha4-beta1 and alpha4-beta7 receptor antagonists” (Bioorg Med Chem Lett, 2013).
One block for each compound: values may come before it.

How the values were obtained:
[1] = Apparent permeability across human Caco2 cells; type: ADME, cell-based; settings: Caco-2
[2] = molecular target: Integrin alpha-4/beta-7 (Homo sapiens) (UniProt P13612+P26010); assay: Inhibition of human MAdCAM1 binding to integrin alpha4beta7 receptor in human RPMI 8866 cells labeled with Calcein AM relative to (S)-2-(2-chloro-6-methylbenzamido)-3-(4-(2,6-dichlorobenzamido)phenyl)propanoic acid; type: cell-based
Integrin alpha-4/beta-1 [3] = molecular target: T1, Integrin alpha-4/beta-1 (Homo sapiens, UniProt P05556+P13612); assay: Inhibition of human VCAM1 binding to integrin alpha4beta1 receptor in human Ramos cells labeled with Calcein AM relative to (S)-2-(2-chloro-6-methylbenzamido)-3-(4-(2,6-dichlorobenzamido)phenyl)propanoic acid; type: cell-based
T1 sequence (P05556 whole entry, one chain of several): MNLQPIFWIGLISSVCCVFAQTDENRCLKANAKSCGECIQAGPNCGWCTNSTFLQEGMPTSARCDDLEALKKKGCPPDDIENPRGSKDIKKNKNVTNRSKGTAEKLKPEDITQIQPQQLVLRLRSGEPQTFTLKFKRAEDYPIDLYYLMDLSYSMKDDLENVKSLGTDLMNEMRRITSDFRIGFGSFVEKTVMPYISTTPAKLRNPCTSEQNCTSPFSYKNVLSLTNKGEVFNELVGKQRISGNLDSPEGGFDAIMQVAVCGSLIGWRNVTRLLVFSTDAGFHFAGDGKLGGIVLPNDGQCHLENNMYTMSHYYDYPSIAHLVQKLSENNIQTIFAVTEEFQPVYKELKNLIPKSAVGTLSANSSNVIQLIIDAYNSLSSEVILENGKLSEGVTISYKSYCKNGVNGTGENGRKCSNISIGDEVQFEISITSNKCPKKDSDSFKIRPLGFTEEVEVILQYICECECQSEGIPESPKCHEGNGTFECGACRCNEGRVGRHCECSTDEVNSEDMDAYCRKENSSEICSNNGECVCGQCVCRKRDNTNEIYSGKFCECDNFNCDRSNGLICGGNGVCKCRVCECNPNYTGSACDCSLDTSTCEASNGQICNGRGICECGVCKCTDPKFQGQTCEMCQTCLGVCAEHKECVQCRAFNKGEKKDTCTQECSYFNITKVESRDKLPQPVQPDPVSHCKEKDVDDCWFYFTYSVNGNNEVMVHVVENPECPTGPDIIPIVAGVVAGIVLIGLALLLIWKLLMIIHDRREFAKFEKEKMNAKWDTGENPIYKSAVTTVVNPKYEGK

Integrin alpha-4/beta-7 = molecular target: T2, Integrin alpha-4/beta-7 (Homo sapiens, UniProt P13612+P26010); assay: Inhibition of human MAdCAM1 binding to integrin alpha4beta7 receptor in human RPMI 8866 cells labeled with Calcein AM; type: cell-based
T2 sequence (P13612 whole entry): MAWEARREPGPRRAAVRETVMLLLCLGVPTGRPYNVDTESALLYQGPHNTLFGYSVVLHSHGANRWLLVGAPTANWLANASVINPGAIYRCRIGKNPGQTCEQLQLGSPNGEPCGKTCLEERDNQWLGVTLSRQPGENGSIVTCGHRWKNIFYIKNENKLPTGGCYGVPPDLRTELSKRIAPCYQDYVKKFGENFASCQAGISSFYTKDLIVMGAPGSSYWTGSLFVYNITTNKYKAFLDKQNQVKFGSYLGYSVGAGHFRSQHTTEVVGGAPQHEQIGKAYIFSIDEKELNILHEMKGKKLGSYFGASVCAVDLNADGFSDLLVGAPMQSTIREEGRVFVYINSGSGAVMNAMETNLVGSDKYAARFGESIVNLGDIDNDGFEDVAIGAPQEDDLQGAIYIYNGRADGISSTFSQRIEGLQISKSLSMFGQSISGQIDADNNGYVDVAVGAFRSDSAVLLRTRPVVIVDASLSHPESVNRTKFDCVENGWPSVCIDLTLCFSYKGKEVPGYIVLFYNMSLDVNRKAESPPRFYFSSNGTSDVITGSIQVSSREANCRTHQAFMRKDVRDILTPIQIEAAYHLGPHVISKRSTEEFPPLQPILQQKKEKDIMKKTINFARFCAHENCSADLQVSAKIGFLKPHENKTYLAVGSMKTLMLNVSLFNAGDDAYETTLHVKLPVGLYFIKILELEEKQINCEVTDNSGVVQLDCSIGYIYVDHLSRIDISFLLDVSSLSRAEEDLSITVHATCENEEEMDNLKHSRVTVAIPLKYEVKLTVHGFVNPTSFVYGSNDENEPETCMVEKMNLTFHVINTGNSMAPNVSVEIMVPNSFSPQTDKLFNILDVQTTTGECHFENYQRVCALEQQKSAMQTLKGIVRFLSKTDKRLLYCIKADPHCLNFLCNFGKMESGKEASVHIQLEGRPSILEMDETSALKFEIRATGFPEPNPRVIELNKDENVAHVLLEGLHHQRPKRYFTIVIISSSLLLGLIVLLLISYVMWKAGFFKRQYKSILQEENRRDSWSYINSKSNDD
T2 sequence (P26010 whole entry): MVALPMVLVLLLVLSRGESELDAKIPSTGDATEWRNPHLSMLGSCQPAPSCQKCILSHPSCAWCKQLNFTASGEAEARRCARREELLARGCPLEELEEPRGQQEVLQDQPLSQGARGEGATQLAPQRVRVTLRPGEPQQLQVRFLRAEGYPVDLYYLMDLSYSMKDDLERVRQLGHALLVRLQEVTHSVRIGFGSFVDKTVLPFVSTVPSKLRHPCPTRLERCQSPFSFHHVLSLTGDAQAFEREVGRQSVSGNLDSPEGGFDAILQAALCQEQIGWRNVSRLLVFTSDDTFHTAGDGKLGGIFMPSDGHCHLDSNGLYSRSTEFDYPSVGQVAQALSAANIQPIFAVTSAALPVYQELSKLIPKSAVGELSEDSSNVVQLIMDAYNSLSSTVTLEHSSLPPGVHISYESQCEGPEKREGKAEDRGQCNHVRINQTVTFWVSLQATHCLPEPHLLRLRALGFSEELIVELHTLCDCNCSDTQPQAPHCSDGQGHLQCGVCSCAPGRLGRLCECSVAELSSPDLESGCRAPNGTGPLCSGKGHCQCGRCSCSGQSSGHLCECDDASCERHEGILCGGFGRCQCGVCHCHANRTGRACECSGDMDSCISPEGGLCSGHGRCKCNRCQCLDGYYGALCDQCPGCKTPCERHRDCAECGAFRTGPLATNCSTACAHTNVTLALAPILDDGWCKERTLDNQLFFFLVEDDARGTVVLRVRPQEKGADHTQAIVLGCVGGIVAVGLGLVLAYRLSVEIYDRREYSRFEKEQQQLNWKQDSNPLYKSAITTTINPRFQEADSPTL

Integrin alpha-4/beta-1 [4] = molecular target: T1, Integrin alpha-4/beta-1; assay: Inhibition of human VCAM1 binding to integrin alpha4beta1 receptor in human Ramos cells labeled with Calcein AM; type: cell-based
[5] = Oral bioavailability in rat; type: ADME, organism-based; settings: in vivo
[6] = Distribution coefficient, log D of the compound; type: physicochemical; settings: octanol/water

SMILES: CCn1c(C)c(-c2ccc(C[C@H](NC(=O)c3c(C)cccc3Cl)C(=O)O)cc2)c(=O)n(CC)c1=O
Ratio IC50 [2]: 1.7 | Ratio IC50 (Integrin alpha-4/beta-1 [3]): 0.37 | IC50 (Integrin alpha-4/beta-7): 0.164 µM | IC50 (Integrin alpha-4/beta-1 [4]): 0.296 µM

SMILES: CCOC(=O)[C@H](Cc1ccc(-c2c(C)n(C)c(=O)n(C)c2=O)cc1)NC(=O)c1c(C)cccc1Cl
Papp [1]: 34.7 ×10⁻⁶ cm/s | bioavailability [5]: 25% | logD [6]: 2.24

SMILES: COCCC1(C(=O)N[C@@H](Cc2ccc(-c3c(C)n(C)c(=O)n(C)c3=O)cc2)C(=O)O)CCCC1
Ratio IC50 [2]: 1 | Ratio IC50 (Integrin alpha-4/beta-1 [3]): 0.49 | IC50 (Integrin alpha-4/beta-7): 0.324 µM | IC50 (Integrin alpha-4/beta-1 [4]): 0.287 µM

SMILES: CCn1c(C)c(-c2ccc(C[C@H](NC(=O)C3(CCOC)CCCC3)C(=O)O)cc2)c(=O)n(CC)c1=O
Ratio IC50 [2]: 0.46 | Ratio IC50 (Integrin alpha-4/beta-1 [3]): 0.29 | IC50 (Integrin alpha-4/beta-7): 0.565 µM | IC50 (Integrin alpha-4/beta-1 [4]): 0.382 µM

SMILES: Cn1c(C(F)(F)F)c(-c2ccc(C[C@H](NC(=O)c3c(Cl)cccc3Cl)C(=O)O)cc2)c(=O)n(C)c1=O
Ratio IC50 [2]: 1.3 | Ratio IC50 (Integrin alpha-4/beta-1 [3]): 0.46 | IC50 (Integrin alpha-4/beta-7): 0.219 µM | IC50 (Integrin alpha-4/beta-1 [4]): 0.196 µM

SMILES: Cc1c(-c2ccc(C[C@H](NC(=O)c3c(C(C)C)cccc3C(C)C)C(=O)O)cc2)c(=O)n(C)c(=O)n1C
Ratio IC50 [2]: 0.15 | Ratio IC50 (Integrin alpha-4/beta-1 [3]): 0.04 | IC50 (Integrin alpha-4/beta-7): 1.97 µM | IC50 (Integrin alpha-4/beta-1 [4]): 1.45 µM

SMILES: CCn1c(C)c(-c2ccc(C[C@H](NC(=O)c3c(Cl)cccc3Cl)C(=O)O)cc2)c(=O)n(CC)c1=O
Ratio IC50 [2]: 4.8 | Ratio IC50 (Integrin alpha-4/beta-1 [3]): 0.8 | IC50 (Integrin alpha-4/beta-7): 0.124 µM | IC50 (Integrin alpha-4/beta-1 [4]): 0.063 µM

SMILES: CC(=O)OC(C)OC(=O)[C@H](Cc1ccc(-c2c(C)n(C)c(=O)n(C)c2=O)cc1)NC(=O)c1c(F)cccc1F (some centres undefined)
Papp [1]: 12 ×10⁻⁶ cm/s | bioavailability [5]: 30% | logD [6]: 1.61

SMILES: CCOC(=O)[C@H](Cc1ccc(-c2c(C)n(C)c(=O)n(C)c2=O)cc1)NC(=O)c1c(Cl)cccc1Cl
Papp [1]: 18.3 ×10⁻⁶ cm/s | bioavailability [5]: 6% | logD [6]: 2.01

Other lines, results leading:

Papp [1]: 1.33 ×10⁻⁶ cm/s | Ratio IC50 [2]: 16 | Ratio IC50 (Integrin alpha-4/beta-1 [3]): 6.3 | IC50 (Integrin alpha-4/beta-7): 0.035 µM | IC50 (Integrin alpha-4/beta-1 [4]): 0.008 µM | bioavailability [5]: 1.7% | logD [6]: -2.02
SMILES: Cc1c(-c2ccc(C[C@H](NC(=O)c3c(Cl)cccc3Cl)C(=O)O)cc2)c(=O)n(C)c(=O)n1C

Ratio IC50 [2]: 2.3 | Ratio IC50 (Integrin alpha-4/beta-1 [3]): 0.53 | IC50 (Integrin alpha-4/beta-7): 0.151 µM | IC50 (Integrin alpha-4/beta-1 [4]): 0.087 µM
SMILES: CCc1cccc(Cl)c1C(=O)N[C@@H](Cc1ccc(-c2c(C)n(C)c(=O)n(C)c2=O)cc1)C(=O)O

Papp [1]: 2.9 ×10⁻⁶ cm/s | Ratio IC50 [2]: 6.1 | Ratio IC50 (Integrin alpha-4/beta-1 [3]): 2.1 | IC50 (Integrin alpha-4/beta-7): 0.058 µM | IC50 (Integrin alpha-4/beta-1 [4]): 0.035 µM | bioavailability [5]: 10% | logD [6]: -1.76
SMILES: Cc1cccc(Cl)c1C(=O)N[C@@H](Cc1ccc(-c2c(C)n(C)c(=O)n(C)c2=O)cc1)C(=O)O

Ratio IC50 (Integrin alpha-4/beta-1 [3]): 1 | IC50 (Integrin alpha-4/beta-1 [4]): 0.081 µM
SMILES: Cc1cc(C[C@H](NC(=O)c2c(C)cccc2Cl)C(=O)O)ccc1-c1cn(C)c(=O)n(C)c1=O

Ratio IC50 (Integrin alpha-4/beta-1 [3]): 2 | IC50 (Integrin alpha-4/beta-1 [4]): 0.025 µM
SMILES: Cc1cc(C[C@H](NC(=O)c2c(C)cccc2Br)C(=O)O)ccc1-c1cn(C)c(=O)n(C)c1=O

Ratio IC50 (Integrin alpha-4/beta-1 [3]): 0.8 | IC50 (Integrin alpha-4/beta-1 [4]): 0.064 µM
SMILES: COCCC1(C(=O)N[C@@H](Cc2ccc(-c3cn(C)c(=O)n(C)c3=O)c(C)c2)C(=O)O)CCCC1

Ratio IC50 [2]: 1 | Ratio IC50 (Integrin alpha-4/beta-1 [3]): 0.13 | IC50 (Integrin alpha-4/beta-7): 0.558 µM | IC50 (Integrin alpha-4/beta-1 [4]): 0.215 µM
SMILES: Cc1c(-c2ccc(C[C@H](NC(=O)c3c(Cl)cccc3C(C)C)C(=O)O)cc2)c(=O)n(C)c(=O)n1C

Ratio IC50 [2]: 3.6 | Ratio IC50 (Integrin alpha-4/beta-1 [3]): 1.1 | IC50 (Integrin alpha-4/beta-7): 0.168 µM | IC50 (Integrin alpha-4/beta-1 [4]): 0.01 µM
SMILES: Cc1cc(C[C@H](NC(=O)c2c(Cl)cccc2Cl)C(=O)O)ccc1-c1c(C)n(C)c(=O)n(C)c1=O

Ratio IC50 [2]: 1.9 | Ratio IC50 (Integrin alpha-4/beta-1 [3]): 0.68 | IC50 (Integrin alpha-4/beta-7): 0.22 µM | IC50 (Integrin alpha-4/beta-1 [4]): 0.056 µM
SMILES: Cc1cc(C[C@H](NC(=O)c2c(Cl)cccc2Cl)C(=O)O)ccc1-c1cn(C)c(=O)n(C)c1=O

Ratio IC50 [2]: 2.4 | Ratio IC50 (Integrin alpha-4/beta-1 [3]): 0.1 | IC50 (Integrin alpha-4/beta-7): 0.167 µM | IC50 (Integrin alpha-4/beta-1 [4]): 0.123 µM
SMILES: Cc1cccc(Cl)c1C(=O)N[C@@H](Cc1ccc(-c2c(C(F)(F)F)n(C)c(=O)n(C)c2=O)cc1)C(=O)O

Ratio IC50 (Integrin alpha-4/beta-1 [3]): 0.35 | IC50 (Integrin alpha-4/beta-1 [4]): 0.255 µM
SMILES: COc1cccc(Br)c1C(=O)N[C@@H](Cc1ccc(-c2cn(C)c(=O)n(C)c2=O)c(C)c1)C(=O)O

Ratio IC50 [2]: 1 | Ratio IC50 (Integrin alpha-4/beta-1 [3]): 0.14 | IC50 (Integrin alpha-4/beta-7): 0.254 µM | IC50 (Integrin alpha-4/beta-1 [4]): 0.246 µM
SMILES: Cc1cc(C[C@H](NC(=O)c2c(C)cccc2Cl)C(=O)O)ccc1-c1c(C)n(C)c(=O)n(C)c1=O
